In patent US5360790A, “Method and formulations for the therapy of acute renal failure” (The Regents of the University of Michigan, priority 1993, dated 1994):

What was measured:
Format in all cases: in vivo, rat
renal tubule cells [1] = test: [3H] thymidine incorporation into renal cortex after HgCl2 (nephrotoxic acute renal failure); conditions: for [3H] Thymidine Incorporation: EGF 20 μg sc 2-4 h after nephrotoxin
Protocol: (§1) At time intervals of 24, 30, 48, and 72 hours after toxin administration, [^3 H] thymidine incorporation into renal cortex, as well as blood urea nitrogen (BUN) and serum creatinine levels, were determined with methods known and practiced in the art. To obtain a complete time course for the BUN and serum creatinine levels, some animals were allowed to recover for as long as 12 days after HgCl2 administration, and blood samples were obtained daily for BUN and serum creatinine levels.

renal tubule cells [2] = test: Histoautoradiography of [3H] thymidine labeled kidney cells after HgCl2
Protocol: as §1
Histoautoradiographic studies were performed to determine the type of cells labeled with [^3 H] thymidine after HgCl2 exposure. Kidney sections from rats at 48 or 72 h after toxic administration were used for histoautoradiographic analysis. Labeling was confined to the nuclei. On average, 97.9% of the labeled cells were tubule cells, and 2.1% of the labeled cells were interstitial cells in the 60 examined fields. In control rats undergoing sham injection, 98.4% of labeled cells were tubule, and 1.6% were interstitial in 90 examined fields.

Male Sprague-Dawley rats [3] = test: BUN and serum creatinine time course after HgCl2 (nephrotoxic acute renal failure)
Protocol: as §1

Male Sprague-Dawley rats [4] = test: Histological score of tubule cell injury after HgCl2; conditions: 24 h after HgCl2; n=120 fields from 3 animals; P=NS vs non-EGF-treated
Protocol: Histological grading was assessed at 24 h, a time at which the peak of HgCl2 -induced toxic renal injury occurs and just before the accelerated regeneration repair phase. At 24 h, the mean histological scores in the inner cortex and outer stripe were 2.92±0.13 and 4.70±0.07, respectively, in the nephrotoxic non-EGF-treated rats vs. scores of 3.25±0.18 and 4.65±0.08, respectively, in the nephrotoxic EGF-treated rats (n=120 fields from 3 animals in each treatment group, P=NS for both scores). At 24 h after HgCl2, extensive necrosis was present in proximal tubule segments with no difference in the degree of tubule cell necrosis observed histologically between the EGF-treated and nontreated groups receiving HgCl2.

renal tubule cells [5] = test: 3H-thymidine incorporation into kidneys after bilateral renal artery clamping (ischemic acute renal failure)
Protocol: (§2) Sprague Dawley rats (250-325 g) were anesthetized with a short-acting barbiturate, the abdominal cavity was exposed, and both left and right renal arteries were identified and clamped for 30 minutes. The clamps were released and perfusion to the kidneys reestablished. At time intervals of 24, 48, and 72 hours after ischemia and reperfusion, ^3 H-thymidine incorporation into kidneys, as well as blood urea nitrogen (BUN) and serum creatinine levels. To obtain a complete time course, some animals were allowed to recover for 7 days after renal ischemia and blood samples were then obtained daily for BUN or serum creatinine measurements.
(§3) This dose of EGF is substantially lower than those employed in previously reported studies that administered EGF systemically. At varying time points after reperfusion, measurements of ^3 H-thymidine incorporation into the kidneys and BUN, and serum creatinine levels were determined.

renal tubule cells [6] = test: Histoautoradiography of 3H-thymidine labeled kidney cells after renal ischemia
Text: To localize and identify the cells incorporating the radiolabeled thymidine within the kidney, histoautoradiography of kidney samples was also accomplished. For quantitative evaluation, a computerized operator-interactive system was used. Sections were examined at 276 magnification, and 10-15 fields were counted in the cortex and outer and inner stripes of the outer medulla in each section for an individual animal. The cell type of the labeled cells was identified as either tubular or interstitial.
At varying time points after reperfusion, measurements of ^3 H-thymidine incorporation into the kidneys and BUN, and serum creatinine levels were determined.

Sprague Dawley rats = test: BUN and serum creatinine time course after renal ischemia; conditions: single dose EGF within 1-1.5 hours of reperfusion after 30 minutes bilateral renal ischemia; entire 7-day period
Protocol: as §2, §3

[7] = EGF-treated rats, 48 h after HgCl2 injection, 60 fields
[8] = peak at 3 days after HgCl2 injection, EGF 20 μg sc, P<0.001 vs nontreated
[9] = EGF-treated postischemic rats at 24 hours
[10] = postischemic kidneys at 24 hours after EGF administration

For epidermal growth factor [EGF], which “[3H] Thymidine Incorporation” value (renal tubule cells [1]; 0 h, rats given 5 mg/kg HgCl2, mean (SE 0.03 printed)) is on record?
The value was 0.12 dpm × 10^4 /mg DNA.

And the “[3H] Thymidine Incorporation” value (renal tubule cells [1]; 24 h after 5 mg/kg HgCl2, mean (SE 1.28 printed))?
Its value is 13.81 dpm × 10^4 /mg DNA.

What about the “[3H] Thymidine Incorporation” value (renal tubule cells [1]; 48 h after 5 mg/kg HgCl2, mean (SE 19.52 printed)) of the same substance?
Its value is 80.52 dpm × 10^4 /mg DNA.

And the “[3H] Thymidine Incorporation” value (renal tubule cells [1]; 72 h after 5 mg/kg HgCl2, mean (SE 13.80 printed))?
Its value is 116.24 dpm × 10^4 /mg DNA.

And the “renal thymidine incorporation compared with non-EGF-treated animals receiving the nephrotoxin” value (renal tubule cells [1]; single dose EGF 2 or 4 h after HgCl2, at 24, 30, 48 and 72 h)?
The value was “higher rates of renal thymidine incorporation”.

And the “number of tubule cells incorporating [3H] thymidine” value (renal tubule cells [2]; 24 h after HgCl2, renal cortex and outer medulla, n=3 rats and 60 fields, P<0.02 vs nontreated)?
The value was 7.5±1.8 labeled cells/field.

What about the “number of labeled tubule cells” value (renal tubule cells [2]; 48 h after HgCl2, renal cortex and outer medulla, n=3 rats and 60 fields) of the same substance?
The value was 20.9±2.1 cells/field.

And the “labeled cells identified as interstitial cells” value (renal tubule cells [2]; [7])?
Its value is 3.7%.

And the “labeled cells identified as tubule” value (renal tubule cells [2]; [7])?
The value was 96.3%.

And the “return to near normal BUN and serum creatinine, earlier than in non-EGF-treated animals” value (Male Sprague-Dawley rats [3]; after HgCl2)?
Its value is 4 days.

And the “return to near normal BUN and serum creatinine levels” value (Male Sprague-Dawley rats [3]; day after HgCl2 administration)?
Its value is 8 days.

What about the “peak BUN level” value (Male Sprague-Dawley rats [3]; [8]) of the same substance?
The value was 213 ± 23 mg/dL.

What about the “peak serum creatinine level” value (Male Sprague-Dawley rats [3]; [8]) of the same substance?
The value was 6.54 ± 0.72 mg/dL.

And the “mean histological score, inner cortex” value (Male Sprague-Dawley rats [4])?
Its value is 3.25±0.18.

And the “mean histological score, outer stripe” value (Male Sprague-Dawley rats [4])?
Its value is 4.65±0.08.

What about the “3H-thymidine incorporation, sham ischemia” value (renal tubule cells [5]; EGF treatment of rats undergoing sham ischemia, P=NS, n=3) of the same substance?
Its value is “did not show any increase”.

What about the “renal thymidine incorporation compared with control nontreated ischemia values” (renal tubule cells [5]; single dose EGF 1-1.5 hours after reperfusion, 24, 48, 72 hours of reperfusion after 30 minutes bilateral renal artery clamping) of the same substance?
The value was “significantly increased renal thymidine incorporation”.

And the “labeled cells identified as interstitial cells” value (renal tubule cells [6]; [9])?
The value was 1.9%.

And the “labeled cells identified as tubule” value (renal tubule cells [6]; [9])?
The value was 98.1%.

And the “labeled interstitial cells, absolute number” value (renal tubule cells [6]; [9])?
Its value is 61.

What about the “labeled tubule cells, absolute number” value (renal tubule cells [6]; [9]) of the same substance?
Its value is 3,183.

What about the “distribution of labeled tubule cells: cortex” value (renal tubule cells [6]; [10]) of the same substance?
Its value is 27%.

And the “distribution of labeled tubule cells: outer stripe of the outer medulla” value (renal tubule cells [6]; [10])?
The value was 68%.

What about the “BUN levels of EGF-treated animals” value (Sprague Dawley rats) of the same substance?
Its value is “significantly lower”.

And the “creatinine levels of EGF-treated animals” value (Sprague Dawley rats)?
The value was “significantly lower”.
